Source: BigSolDB 2.1

O=C1C(CCS(=O)c2ccccc2)C(=O)N(c2ccccc2)N1c1ccccc1 (stereo not drawn)
solubility (mole fraction)
Conditions	283.15 K	288.15 K	293.15 K	298.15 K	303.15 K	308.15 K	313.15 K	318.15 K	323.15 K
in 2-butanone	0.0136	0.0157	0.0199	0.0241	0.0288	0.0333	0.0388	0.0495	0.0601
in acetone	0.0138	0.0165	0.02	0.0244	0.0293	0.0371	0.0452	0.0524	0.0745
in acetonitrile	0.0131	0.0155	0.0213	0.0265	0.0334	0.0474	0.0648	0.0799	0.103
in ethanol	0.00156	0.00211	0.0027	0.00356	0.0045	0.00542	0.00719	0.00956	0.0137
in isopropanol	0.000256	0.000609	0.00104	0.00204	0.00302	0.0045	0.00583	0.0071	0.00937
in methanol	0.0026	0.00318	0.00401	0.00508	0.00679	0.00864	0.0114	0.0176	0.0278
in methyl acetate	0.00978	0.0109	0.0139	0.0161	0.0195	0.0222	0.0272	0.0345	0.0485
in n-butanol	0.00169	0.00245	0.00314	0.00438	0.00592	0.00724	0.00971	0.0129	0.0166
in n-pentanol	0.00284	0.00357	0.00429	0.0053	0.00627	0.00725	0.00824	0.00921	0.0109
in n-propanol	0.00198	0.00266	0.00347	0.00485	0.00617	0.00752	0.0101	0.0132	0.0183
in sec-butanol	0.0024	0.00301	0.00388	0.0047	0.00546	0.00655	0.00876	0.0109	0.0156
in water	3.6e-05	6.32e-05	0.000111	0.000176	0.000264	0.000352	0.000479	0.000615	0.000777
